Target: T1, recombinant human liver glycogen phosphorylase (Homo sapiens, UniProt P06737)
T1 construct: made in house; host or cells: Sf9 insect cells (crude homogenate, diluted, used as the enzyme solution)
T1 sequence (P06737 1-847): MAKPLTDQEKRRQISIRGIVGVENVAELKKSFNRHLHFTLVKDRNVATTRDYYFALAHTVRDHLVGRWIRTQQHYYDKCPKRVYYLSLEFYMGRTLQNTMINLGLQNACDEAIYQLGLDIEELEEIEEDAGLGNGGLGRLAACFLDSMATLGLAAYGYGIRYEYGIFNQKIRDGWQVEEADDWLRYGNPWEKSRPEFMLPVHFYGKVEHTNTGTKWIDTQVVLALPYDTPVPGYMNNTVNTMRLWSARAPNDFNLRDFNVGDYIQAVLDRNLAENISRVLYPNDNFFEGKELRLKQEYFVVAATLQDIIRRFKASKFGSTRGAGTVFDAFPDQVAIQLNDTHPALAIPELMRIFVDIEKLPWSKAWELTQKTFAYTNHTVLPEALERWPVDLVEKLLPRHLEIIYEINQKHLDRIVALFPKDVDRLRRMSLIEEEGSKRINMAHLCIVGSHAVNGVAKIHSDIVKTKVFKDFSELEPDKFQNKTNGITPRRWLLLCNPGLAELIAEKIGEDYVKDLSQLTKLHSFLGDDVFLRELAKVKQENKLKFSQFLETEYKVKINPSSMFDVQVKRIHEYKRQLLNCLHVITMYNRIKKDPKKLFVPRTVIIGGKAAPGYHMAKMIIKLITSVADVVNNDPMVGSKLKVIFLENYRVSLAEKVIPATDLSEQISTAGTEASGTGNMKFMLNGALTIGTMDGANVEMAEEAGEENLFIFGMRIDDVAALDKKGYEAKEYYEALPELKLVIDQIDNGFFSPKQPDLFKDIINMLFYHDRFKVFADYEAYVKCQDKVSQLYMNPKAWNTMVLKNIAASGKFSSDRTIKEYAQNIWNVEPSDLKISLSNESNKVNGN
Assay: Measuring liver glycogen phosphorylase activity (forward reaction system, NADPH absorbance at 340 nm)
Assay type: biochemical
Details: compound concentration 100 nmol (in parentheses); read-out: inhibition rate (%) at a certain concentration
Outline: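 Compounds in 1% DMSO; activity taken as blank-subtracted 340 nm absorbance change across 75 min at room temperature. Forward reaction: glucose-1-phosphate released from glycogen converted by coupling enzymes, yielding NADPH; enzyme from recombinant Sf9 homogenate, reaction containing glucose, pH 6.8. IC50 from two-point linear interpolation.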

Compound	inhibition at 0.1 µM [%]
O=C(NCc1ccccc1)c1cc(NC(=O)c2ccncc2Cl)[nH]n1 [Example 4-44]	5.7
CCCCN(C(=O)c1cc(NC(=O)c2cc(F)c(F)cc2Cl)[nH]n1)c1ccc(CC(=O)OCC)cc1 [Example 4-45]	5.9
COCCN(C(=O)c1cc(NC(=O)c2cc(F)c(F)cc2Cl)[nH]n1)c1ccc(C(=O)OC)cc1 [Example 4-47]	1.2

Same assay, conditions: compound concentration 300 nmol (in parentheses); read-out: inhibition rate (%) at a certain concentration

Compound	inhibition at 0.3 µM [%]
COc1ccccc1NC(=O)c1cc(NC(=O)c2cc(F)c(F)cc2Cl)[nH]n1 [Example 3-27]	41.5
CN(C)CCNC(=O)c1cc(NC(=O)c2cc(F)c(F)cc2Cl)[nH]n1 [Example 3-42]	1.1
CCN(CCN(C)C)C(=O)c1cc(NC(=O)c2cc(F)c(F)cc2Cl)[nH]n1 [Example 3-43]	13.4
Cc1ccc(Cl)cc1C(=O)Nc1cc(C(=O)NCc2ccccc2)n[nH]1 [Example 4-13]	38
COc1ccc(C(=O)Nc2cc(C(=O)NCc3ccccc3)n[nH]2)c(C)c1 [Example 4-14]	10.6
COc1ccc(F)cc1C(=O)Nc1cc(C(=O)NCc2ccccc2)n[nH]1 [Example 4-16]	5.1
COc1ccc(Cl)cc1C(=O)Nc1cc(C(=O)NCc2ccccc2)n[nH]1 [Example 4-17]	1.1
Cc1ccc(F)c(C(=O)Nc2cc(C(=O)NCc3ccccc3)n[nH]2)c1 [Example 4-19]	3.3
O=C(NCc1ccccc1)c1cc(NC(=O)c2cc(Cl)ccc2F)[nH]n1 [Example 4-20]	3.3
O=C(NCc1ccccc1)c1cc(NC(=O)c2c(F)ccc(Cl)c2F)[nH]n1 [Example 4-21]	24.2
O=C(NCc1ccccc1)c1cc(NC(=O)c2ccc(F)cc2C(F)(F)F)[nH]n1 [Example 4-32]	7.8
O=C(NCc1ccccc1)c1cc(NC(=O)c2cc(F)ccc2C(F)(F)F)[nH]n1 [Example 4-33]	15.2
Cc1ccc(C)c(C(=O)Nc2cc(C(=O)NCc3ccccc3)n[nH]2)c1 [Example 4-35]	9.7
O=C(NCc1ccccc1)c1cc(NC(=O)c2ccc(Cl)nc2Cl)[nH]n1 [Example 4-39]	5.3
CCCCN(C(=O)c1cc(NC(=O)c2cc(F)c(F)cc2Cl)[nH]n1)c1ccc(C(=O)OCC)cc1 [Example 4-40]	3.6
Cc1ncccc1C(=O)Nc1cc(C(=O)NCc2ccccc2)n[nH]1 [Example 4-42]	8.5
Cc1ccc(C(=O)Nc2cc(C(=O)NCc3ccccc3)n[nH]2)c(Cl)n1 [Example 4-43]	3.8

Same assay, conditions: compound concentration 400 nmol (in parentheses); read-out: inhibition rate (%) at a certain concentration

Compound	inhibition at 0.4 µM [%]
O=C(Nc1cc(C(=O)N2CCc3ccccc3C2)n[nH]1)c1cc(F)c(F)cc1Cl [Example 3-12]	50

Same assay, conditions: compound concentration 480 nmol (in parentheses); read-out: inhibition rate (%) at a certain concentration

Compound	inhibition at 0.48 µM [%]
O=C(NCCc1ccccc1)c1cc(NC(=O)c2cc(F)c(F)cc2Cl)[nH]n1 [Example 3-9]	50

Same assay, conditions: compound concentration 590 nmol (in parentheses); read-out: inhibition rate (%) at a certain concentration

Compound	inhibition at 0.59 µM [%]
CC(C)(NC(=O)c1cc(NC(=O)c2cc(F)c(F)cc2Cl)[nH]n1)c1ccccc1 [Example 4-10]	50

Same assay, conditions: compound concentration 640 nmol (in parentheses); read-out: inhibition rate (%) at a certain concentration

Compound	inhibition at 0.64 µM [%]
O=C(N[C@@H](CO)c1ccccc1)c1cc(NC(=O)c2cc(F)c(F)cc2Cl)[nH]n1 [Example 3-22]	50

Same assay, conditions: compound concentration 1000 nmol (in parentheses); read-out: inhibition rate (%) at a certain concentration

Compound	inhibition at 1 µM [%]
CCOC(=O)C1CCN(C(=O)c2cc(NC(=O)c3cc(F)c(F)cc3Cl)[nH]n2)CC1 [Example 3-6]	42.5
O=C(Nc1cc(C(=O)N2CCC(C(=O)O)CC2)n[nH]1)c1cc(F)c(F)cc1Cl [Example 3-8]	11.7
CN(CCc1ccccc1)C(=O)c1cc(NC(=O)c2cc(F)c(F)cc2Cl)[nH]n1 [Example 3-10]	23.2
COC(=O)[C@@H](NC(=O)c1cc(NC(=O)c2cc(F)c(F)cc2Cl)[nH]n1)c1ccccc1 [Example 3-13]	25.5
COC(=O)[C@H](NC(=O)c1cc(NC(=O)c2cc(F)c(F)cc2Cl)[nH]n1)c1ccccc1 [Example 3-14]	41.7
O=C(NC(c1ccccc1)c1ccccc1)c1cc(NC(=O)c2cc(F)c(F)cc2Cl)[nH]n1 [Example 3-19]	9.2
O=C(N[C@H](CO)c1ccccc1)c1cc(NC(=O)c2cc(F)c(F)cc2Cl)[nH]n1 [Example 3-23]	26.1
COC(=O)c1ccc(N(C)C(=O)c2cc(NC(=O)c3cc(F)c(F)cc3Cl)[nH]n2)cc1 [Example 4-1, methyl 5-(2-chloro-4,5-difluorobenzoylamino)-1H-pyrazole-3-carbocylic acid (4-methoxycarbonyl-phenyl)-methyl-amide]	13.8

Same assay, conditions: enzyme inhibitory activity with respect to liver glycogen phosphorylase; class symbols

Compound	IC50 [µM]
O=C(Nc1cc(C(=O)N2CCCc3ccccc32)n[nH]1)c1cc(F)c(F)cc1Cl [Example 3-15]	0.1 to 0.3
CCCN(C(=O)c1cc(NC(=O)c2cc(F)c(F)cc2Cl)[nH]n1)c1ccccc1 [Example 3-16]	< 0.1
CCCCN(C(=O)c1cc(NC(=O)c2cc(F)c(F)cc2Cl)[nH]n1)c1ccccc1 [Example 3-17]	< 0.1
CCCCCN(C(=O)c1cc(NC(=O)c2cc(F)c(F)cc2Cl)[nH]n1)c1ccccc1 [Example 3-18]	0.1 to 0.3
COc1ccccc1N(C)C(=O)c1cc(NC(=O)c2cc(F)c(F)cc2Cl)[nH]n1 [Example 3-28]	0.1 to 0.3
Nc1cccc(CNC(=O)c2cc(NC(=O)c3cc(F)c(F)cc3Cl)[nH]n2)c1 [Example 3-30]	< 0.1
CN(C)c1cccc(CNC(=O)c2cc(NC(=O)c3cc(F)c(F)cc3Cl)[nH]n2)c1 [Example 3-34]	< 0.1
O=C(NCc1ccccc1Cl)c1cc(NC(=O)c2cc(F)c(F)cc2Cl)[nH]n1 [Example 3-36]	< 0.1
O=C(NCc1cccc(Cl)c1)c1cc(NC(=O)c2cc(F)c(F)cc2Cl)[nH]n1 [Example 3-37]	< 0.1
CN(C)CCN(C(=O)c1cc(NC(=O)c2cc(F)c(F)cc2Cl)[nH]n1)C1CCCCC1 [Example 3-44]	0.1 to 0.3
COC(=O)COc1ccccc1CNC(=O)c1cc(NC(=O)c2cc(F)c(F)cc2Cl)[nH]n1 [Example 3-47]	< 0.1
O=C(O)COc1ccccc1CNC(=O)c1cc(NC(=O)c2cc(F)c(F)cc2Cl)[nH]n1 [Example 3-48]	< 0.1
COc1ccc(CNC(=O)c2cc(NC(=O)c3ccc(Cl)cc3Cl)[nH]n2)cn1 [Example 3-50]	< 0.1
COc1cncc(OC)c1CNC(=O)c1cc(NC(=O)c2cc(F)c(F)cc2Cl)[nH]n1 [Example 3-51]	< 0.1
Cc1nc(C)c(CNC(=O)c2cc(NC(=O)c3cc(F)c(Cl)cc3Cl)[nH]n2)o1 [Example 3-53]	< 0.1
CC(C)N(C(=O)c1cc(NC(=O)c2cc(F)c(F)cc2Cl)[nH]n1)c1ccccc1 [Example 4-3]	0.1 to 0.3
O=C(O)CN(C(=O)c1cc(NC(=O)c2cc(F)c(F)cc2Cl)[nH]n1)c1ccccc1 [Example 4-5]	0.1 to 0.3
O=C(NCc1ccccc1)c1cc(NC(=O)c2ccc(F)cc2Cl)[nH]n1 [Example 4-6]	0.1 to 0.3
O=C(NCc1ccccc1)c1cc(NC(=O)c2ccc(Cl)cc2Cl)[nH]n1 [Example 4-7]	0.1 to 0.3
O=C(NCc1ccccc1)c1cc(NC(=O)c2cc(F)ccc2Cl)[nH]n1 [Example 4-8]	0.1 to 0.3
O=C(Nc1cc(C(=O)N(CC(=O)N2CCCCC2)c2ccccc2)n[nH]1)c1cc(F)c(F)cc1Cl [Example 4-11]	< 0.1
Cc1ccc(F)cc1C(=O)Nc1cc(C(=O)NCc2ccccc2)n[nH]1 [Example 4-12]	0.1 to 0.3
Cc1cc(Cl)ccc1C(=O)Nc1cc(C(=O)NCc2ccccc2)n[nH]1 [Example 4-15]	0.1 to 0.3
CC(C)CN(C(=O)c1cc(NC(=O)c2cc(F)c(F)cc2Cl)[nH]n1)c1ccccc1 [Example 4-24]	0.1 to 0.3
COC(=O)CCN(C(=O)c1cc(NC(=O)c2cc(F)c(F)cc2Cl)[nH]n1)c1ccccc1 [Example 4-25]	< 0.1
CCOC(=O)CCCN(C(=O)c1cc(NC(=O)c2cc(F)c(F)cc2Cl)[nH]n1)c1ccccc1 [Example 4-26]	< 0.1
O=C(O)CCN(C(=O)c1cc(NC(=O)c2cc(F)c(F)cc2Cl)[nH]n1)c1ccccc1 [Example 4-27]	0.1 to 0.3
O=C(O)CCCN(C(=O)c1cc(NC(=O)c2cc(F)c(F)cc2Cl)[nH]n1)c1ccccc1 [Example 4-28]	0.1 to 0.3
O=C(NCCN1CCOCC1)c1ccc(CNC(=O)c2cc(NC(=O)c3cc(F)c(F)cc3Cl)[nH]n2)cc1 [Example 5-4]	< 0.1

— patent publication US20070032529A1, “Pyrazole compounds and their use as antidiabetes agents” (Japan Tobacco Inc., priority 2005, published 2007)
